Experimental data reported in patent US4482553A, “Benzothienylglycyl cephalosporin derivatives” (priority 1983, dated 1984).
Read-outs that look alike come from different tables or passages of the source.

Key:
Type in all cases: cell-based
Staph. aureus [1] = test: standard in vitro agar dilution MIC (Table I), Staph. aureus
Staph. epi [2] = test: standard in vitro agar dilution MIC (Table I), Staph. epi
Strep. D = test: standard in vitro agar dilution MIC (Table I), Strep. D
H. influ. [3] = test: standard in vitro agar dilution MIC (Table I), H. influ.
Source text: (§1) The antibacterial activity of several compounds of the invention has been determined in standard in vitro agar dilution assays against a variety of gram positive and gram negative microorganisms. The following Tables present typical minimum inhibitory concentrations (MIC's) in μg/ml for several compounds of the invention when evaluated against the indicated microorganisms. MIC's for several known compounds are also presented for comparison.

E. coli = test: standard in vitro agar dilution MIC (Table I), E. coli; settings: Escherichia coli
Klebsiella = test: standard in vitro agar dilution MIC (Table I), Klebsiella; settings: Table I, agar dilution
Strep. A = test: standard in vitro agar dilution MIC (Table I), Strep. A
Strep. PN = test: standard in vitro agar dilution MIC (Table I), Strep. PN; settings: strain PARK
Staph. epi [4] = test: Expanded Spectrum MIC (Table II), Staph. epi
Source text: as §1

Staph. aureus [5] = test: Expanded Spectrum MIC (Table II), Staph. aureus
Source text: as §1

H. influ. [6] = test: Expanded Spectrum MIC (Table II), H. influ.
Source text: as §1

[7] = Table I, agar dilution, strain EPI1, read-out: MIC
[8] = Klebsiella, strain X26, read-out: MIC
[9] = Klebsiella, strain X68, read-out: MIC

Measured: MIC

CC1(C)S[C@@H]2[C@H](NC(=O)[C@H](N)c3ccccc3)C(=O)N2[C@H]1C(=O)O [Ampicillin, reference compound]
0.5 µg/mL: H. influ. [3]; strain C.L.
16 µg/mL: H. influ. [3]; strain 76 | Klebsiella; [8] | Klebsiella; [9]
64 µg/mL: Staph. aureus [1]; Staphylococcus aureus, strain S13E
8 µg/mL: Staph. epi [2]; [7] | E. coli; strain N10
4 µg/mL: Strep. D; strain X66, read-out: MIC | E. coli; strain EC14
2 µg/mL: Strep. D; strain 2041, read-out: MIC

CC1=C(C(=O)O)N2C(=O)[C@@H](NC(=O)[C@H](N)c3ccccc3)[C@H]2SC1 [Cephalexin, reference compound]
0.5 µg/mL: Strep. A
4 µg/mL: Klebsiella; [8]
2 µg/mL: Strep. PN; read-out: MIC
8 µg/mL: Staph. epi [2] | H. influ. [3]; strain 76 | H. influ. [3]; strain C.L. | Klebsiella; [9]
32 µg/mL: Staph. epi [2]; [7]

CC1=C(C(=O)O)N2C(=O)C(NC(=O)[C@H](N)c3cc4cc(Cl)ccc4s3)C2SC1 (stereo partly drawn) [Ex. 2, D-7-(5-Chloro-2-benzothienyl)glycylamido-3-methyl-3-cephem-4-carboxylic acid]
> 64 µg/mL: H. influ. [6]; strain M366 | H. influ. [6]; strain STEL
2 µg/mL: H. influ. [3]; strain C.L., read-out: MIC
0.5 µg/mL: Staph. aureus [1]; Staphylococcus aureus, strain X1.1, read-out: MIC | Strep. PN; read-out: MIC | H. influ. [3]; strain 76, read-out: MIC | Staph. epi [4]; strain 285, read-out: MIC | Staph. aureus [5]; Staphylococcus aureus, strain 239, read-out: MIC | Staph. aureus [5]; Staphylococcus aureus, strain S226, read-out: MIC | Staph. aureus [5]; Staphylococcus aureus, strain S229, read-out: MIC | Staph. aureus [5]; Staphylococcus aureus, strain S234, read-out: MIC | Staph. aureus [5]; Staphylococcus aureus, strain S237, read-out: MIC
1 µg/mL: Staph. epi [2]; Table I, agar dilution, strain 222, read-out: MIC | Staph. epi [4]; strain 269, read-out: MIC | Staph. epi [4]; strain 270, read-out: MIC | Staph. aureus [5]; Staphylococcus aureus, strain S238, read-out: MIC | H. influ. [6]; strain 1683, read-out: MIC
8 µg/mL: H. influ. [6]; strain 76, read-out: MIC
32 µg/mL: Staph. aureus [1]; Staphylococcus aureus, strain V41, read-out: MIC | Klebsiella; [8] | H. influ. [6]; strain C.L., read-out: MIC
0.25 µg/mL: Staph. epi [4]; strain 219, read-out: MIC | Staph. epi [4]; strain 286, read-out: MIC | Staph. aureus [5]; Staphylococcus aureus, strain S224, read-out: MIC | Staph. aureus [5]; Staphylococcus aureus, strain S225, read-out: MIC | Staph. aureus [5]; Staphylococcus aureus, strain S227, read-out: MIC | Staph. aureus [5]; Staphylococcus aureus, strain S228, read-out: MIC | Staph. aureus [5]; Staphylococcus aureus, strain S230, read-out: MIC | Staph. aureus [5]; Staphylococcus aureus, strain S231, read-out: MIC
64 µg/mL: Staph. aureus [1]; Staphylococcus aureus, strain X400, read-out: MIC
4 µg/mL: Staph. epi [2]; [7] | Staph. epi [4]; strain EPI1, read-out: MIC
0.125 µg/mL: Strep. A; Table I, agar dilution, strain C203, read-out: MIC

CC1=C(C(=O)O)N2C(=O)C(NC(=O)C(N)c3cc4c(s3)CCCC4)C2SC1 [Ex. 5, D-7-[(4,5,6,7-tetrahydro-2-benzothienyl)glycylamido]-3-methyl-3-cephem-4-carboxylic acid]
4 µg/mL: H. influ. [3]; strain 76 | Staph. epi [4]; strain EPI1 | H. influ. [6]; strain 105 | H. influ. [6]; strain 158 | H. influ. [6]; strain 164 | H. influ. [6]; strain 312 | H. influ. [6]; strain 1683 | H. influ. [6]; strain 4842 | H. influ. [6]; strain M370 | H. influ. [6]; strain M371
0.25 µg/mL: Staph. aureus [1]; strain X1.1 | Strep. PN | Staph. epi [4]; strain 286 | Staph. aureus [5]; strain S231
0.06 µg/mL: Strep. A; Table I, agar dilution, strain C203
8 µg/mL: Staph. aureus [1]; strain S13E | H. influ. [6]; strain 76
0.5 µg/mL: Staph. epi [2]; Table I, agar dilution, strain 222 | Staph. epi [4]; strain 219 | Staph. epi [4]; strain 270 | Staph. aureus [5]; strain 239 | Staph. aureus [5]; strain S224 | Staph. aureus [5]; strain S225 | Staph. aureus [5]; strain S226 | Staph. aureus [5]; strain S227 | Staph. aureus [5]; strain S228 | Staph. aureus [5]; strain S230 | Staph. aureus [5]; strain S237
64 µg/mL: Staph. aureus [1]; strain X400
16 µg/mL: Staph. aureus [1]; strain V41 | H. influ. [3]; strain C.L. | H. influ. [6]; strain 169 | H. influ. [6]; strain 171 | H. influ. [6]; strain 1930 | H. influ. [6]; strain C.L. | H. influ. [6]; strain HESS | H. influ. [6]; strain R465
2 µg/mL: Staph. epi [2]; Table I, agar dilution, strain EPI1 | Klebsiella; strain X26 | Staph. epi [4]; strain 269
1 µg/mL: Staph. epi [4]; strain 285 | Staph. aureus [5]; strain S229 | Staph. aureus [5]; strain S234 | Staph. aureus [5]; strain S238
> 64 µg/mL: H. influ. [6]; strain M366 | H. influ. [6]; strain STEL
